The text below walks through data of the SangsterLogP compilation.

The nature of this data set: method code SF-HPLC, from DOI: 10.1023/a:1015933504191, PMID: 2122435. To be noted: pH 7.4.
Turning to `NC(=O)[C@@H]1CCCN1C(=O)[C@H](Cc1cn(C(=O)OCc2ccccc2)cn1)NC(=O)[C@@H]1CCC(=O)N1`, the logD (usually the decadic logarithm of the distribution of all forms, ionised or not, between an organic phase and buffer at a given pH) is -0.11. For `CCOC(=O)n1cnc(C[C@H](NC(=O)[C@@H]2CCC(=O)N2)C(=O)N2CCC[C@H]2C(N)=O)c1` the value was -1.3; for `CCCCOC(=O)n1cnc(C[C@H](NC(=O)[C@@H]2CCC(=O)N2)C(=O)N2CCC[C@H]2C(N)=O)c1`, -0.47. The result for `CCCC(CCC)OC(=O)n1cnc(C[C@H](NC(=O)[C@@H]2CCC(=O)N2)C(=O)N2CCC[C@H]2C(N)=O)c1` reads 1.2; that for `NC(=O)[C@@H]1CCCN1C(=O)[C@H](Cc1cn(C(=O)OC2CCCCC2)cn1)NC(=O)[C@@H]1CCC(=O)N1`, 0.6. The result for `CC(C)COC(=O)n1cnc(C[C@H](NC(=O)[C@@H]2CCC(=O)N2)C(=O)N2CCC[C@H]2C(N)=O)c1` reads -0.44; that for `CCCCCCOC(=O)n1cnc(C[C@H](NC(=O)[C@@H]2CCC(=O)N2)C(=O)N2CCC[C@H]2C(N)=O)c1`, 0.71.

On to `CC(C)OC(=O)n1cnc(C[C@H](NC(=O)[C@@H]2CCC(=O)N2)C(=O)N2CCC[C@H]2C(N)=O)c1`, for which the logD is -0.8. The result for `CCCCCCCCOC(=O)n1cnc(C[C@H](NC(=O)[C@@H]2CCC(=O)N2)C(=O)N2CCC[C@H]2C(N)=O)c1` reads 1.88; that for `CCC(CC)OC(=O)n1cnc(C[C@H](NC(=O)[C@@H]2CCC(=O)N2)C(=O)N2CCC[C@H]2C(N)=O)c1`, 0.2. The result for `COC(=O)n1cnc(C[C@H](NC(=O)[C@@H]2CCC(=O)N2)C(=O)N2CCC[C@H]2C(N)=O)c1` reads -1.88; that for `CCCCC(CC)COC(=O)n1cnc(C[C@H](NC(=O)[C@@H]2CCC(=O)N2)C(=O)N2CCC[C@H]2C(N)=O)c1` (some centres not stated), 1.82.
